According to patent US20070093520A1, “Method of treatment of diarrhea-predominant irritable bowel syndrome in a subject” (priority 2005, published 2007):

System: diarrhea-predominant IBS subjects
Experiment: 3007 Study: open-label 52-week safety study, adverse events and withdrawals
[1] = Cilansetron 2 mg/Cilansetron 2 mg

Cc1nccn1C[C@H]1CCc2c(c3cccc4c3n2CCC4)C1=O [cilansetron, (R)-(−)-4,5,6,8,9,10-hexahydro-10-[(2-methyl-1H-imidazol-1-yl)methyl]-11H-pyrido-[3,2,1-jk]-carbazol-11-one]
16 (6%) n (%): TEAE: Flatulence [1]
4 (2%) n (%): TEAE: Abdominal Pain Aggravated [1] | TEAE: Abdominal Pain Lower [1] | TEAE: Aspartate Aminotransferase Increased [1] | TEAE: Blood in Stool [1] | TEAE: Dizziness [1] | TEAE: Fungal Infections NEC [1] | TEAE: Gastroenteritis NOS [1] | TEAE: Gastrointestinal Infections - Pathogen Class Unspecified [1] | TEAE: Haemorrhoids [1]
2 (<1%) n (%): TEAE: Back Pain Aggravated [1] | TEAE: Blood Alkaline Phosphatase NOS Increased [1] | TEAE: Blood Bilirubin Increased [1] | TEAE: Blood Glucose Increased [1] | TEAE: Blood Uric Acid Increased [1] | TEAE: Bronchitis Acute NOS [1] | TEAE: Bunion [1] | TEAE: Candida Infections [1] | TEAE: Carbohydrate Tolerance Analyses (Incl Diabetes) [1] | TEAE: Carpal Tunnel Syndrome [1] | TEAE: Connective Tissue Disorders (Excl Le) [1] | TEAE: Dental Pain and Sensation Disorders [1] | TEAE: Diaphragmatic Hernias [1] | TEAE: Dyspepsia Aggravated [1] | TEAE: Ear Infection NOS [1] | TEAE: Ear Infections [1] | TEAE: Eructation [1] | TEAE: Faeces Abnormal [1] | TEAE: Fungal Infection NOS [1] | TEAE: Gastrointestinal Dyskinetic Disorders [1] | TEAE: Gastrointestinal Motility Disorder NOS [1] | TEAE: Gastrointestinal Signs and Symptoms NEC [1] | TEAE: Gingival Abscess [1] | TEAE: Haemorrhoidal Haemorrhage [1] | TEAE: Herpes Simplex [1] | TEAE: Hiatus Hernia [1]
18 (7%) n (%): TEAE: Bronchitis NOS [1]
7 (3%) n (%): TEAE: Abdominal Pain Upper [1]
23 (9%) n (%): TEAE: Faecal Occult Blood Positive [1] | TEAE: Flatulence, Bloating and Distension [1]
24 (9%) n (%): TEAE: Diarrhoea (Excl Infective) [1]
14 (5%) n (%): TEAE: Abdominal Pain NOS [1]
8 (3%) n (%): TEAE: Alanine Aminotransferase Increased [1]
66 (26%) n (%): TEAE: Constipation [1]
5 (2%) n (%): TEAE: Arthropathies NEC [1] | TEAE: Gamma-Glutamyltransferase Increased [1] | TEAE: Gastroenteritis Viral NOS [1] | TEAE: Gastrointestinal Spastic and Hypermotility Disorders [1]
134 (52%) n (%): TEAE: Gastrointestinal Disorders [1]
0 n (%): TEAE: Anal and Rectal Disorders NEC [1] | TEAE: Anal and Rectal Pains [1] | TEAE: Animal Bite [1] | TEAE: Arthropod Sting [1] | TEAE: Bladder Infection NOS [1] | TEAE: Bone Density Decreased [1] | TEAE: Bone Spur [1] | TEAE: Bronchopneumonia NOS [1] | TEAE: Carotid Bruit [1] | TEAE: Cellulitis [1] | TEAE: Change in Bowel Habit NOS [1] | TEAE: Chapped Lips [1] | TEAE: Chest Wall Pain [1] | TEAE: Colitis (Excl Infective) [1] | TEAE: Colitis Ischaemic [1] | TEAE: Diarrhoea Haemorrhagic [1] | TEAE: Dysarthria [1] | TEAE: Dyskinesias and Movement Disorders NEC [1] | TEAE: Electrocardiogram T Wave Inversion [1] | TEAE: Enteritis [1] | TEAE: Epigastric Discomfort [1] | TEAE: Faecal Impaction [1] | TEAE: Gingivitis [1] | TEAE: Haemorrhoids Aggravated [1] | TEAE: Herpes Zoster [1]
36 (14%) n (%): TEAE: Gastrointestinal and Abdominal Pains (Excl Oral and Throat) [1]
11 (4%) n (%): TEAE: Blood Cholesterol Increased [1] | TEAE: Cholesterol Analyses [1]
70 (27%) n (%): TEAE: Gastrointestinal Atonic and Hypomotility Disorders NEC [1]
19 (7%) n (%): TEAE: Blood Creatine Phosphokinase Increased [1] | TEAE: Headache NOS [1]
10 (4%) n (%): TEAE: Arthralgia [1] | TEAE: Dyspeptic Signs and Symptoms [1]
25 (10%) n (%): TEAE: Gastrointestinal Histopathology Procedures [1] | TEAE: Headaches NEC [1]
22 (9%) n (%): TEAE: Diarrhoea NOS [1]
9 (4%) n (%): TEAE: Abdominal Distension [1] | TEAE: Abdominal Tenderness [1] | TEAE: Dental Infections - Pathogen Class Unspecified [1]
1 (<1%) n (%): TEAE: Vulvovaginal Signs and Symptoms* (C/C group) | TEAE: Wheezing (C/C group) | TEAE: Abdominal Discomfort [1] | TEAE: Abdominal Rebound Tenderness [1] | TEAE: Abnormal Reflexes [1] | TEAE: Anal and Rectal Signs and Symptoms [1] | TEAE: Appendicitis [1] | TEAE: Arthritis NOS Aggravated [1] | TEAE: Arthropod Bite [1] | TEAE: Bacteria Identification and Serology (Excl Mycobacteria) [1] | TEAE: Bilirubin Urine [1] | TEAE: Blood Creatine Phosphokinase Mb Increased [1] | TEAE: Blood Creatinine Increased [1] | TEAE: Blood Potassium Increased [1] | TEAE: Blood Sodium Increased [1] | TEAE: Bone Disorder NOS [1] | TEAE: Bone Disorders NEC [1] | TEAE: Bone Injury [1] | TEAE: Bursitis [1] | TEAE: Candidal Infection NOS [1] | TEAE: Cardiac Auscultatory Investigations [1] | TEAE: Cardiac Murmur NOS [1] | TEAE: Cartilage Disorder NOS [1] | TEAE: Cartilage Disorders [1] | TEAE: Cervical Spasm [1] | TEAE: Colonic Polyp [1] | TEAE: Cystitis NOS [1] | TEAE: Dental Disorders NEC [1] | TEAE: Diverticulitis NOS [1] | TEAE: Diverticulum Inflammations [1] | TEAE: Dry Mouth [1] | TEAE: ECG Investigations [1] | TEAE: Electrocardiogram Qrs Complex Abnormal [1] | TEAE: Eye Injuries NEC [1] | TEAE: Faecal Abnormality NOS [1] | TEAE: Faecal Incontinence [1] | TEAE: Faeces Hard [1] | TEAE: Fibromyalgia [1] | TEAE: Food Poisoning NOS [1] | TEAE: Foot Fracture [1] | TEAE: Fractures and Dislocations NEC [1] | TEAE: Frequent Bowel Movements [1] | TEAE: Gastric Irritation [1] | TEAE: Gastrointestinal Disorders NEC [1] | TEAE: Gastrointestinal Inflammatory Disorders NEC [1] | TEAE: Gastrointestinal Mucosal Dystrophies and Secretion Disorders [1] | TEAE: Gingival Atrophy [1] | TEAE: Gingival Disorders NEC [1] | TEAE: Gingival Pain [1] | TEAE: Gingival Pains [1] | TEAE: Gingivitis Infection NOS [1] | TEAE: Glucose Urine Present [1] | TEAE: Groin Pain [1] | TEAE: Haematocrit Decreased [1] | TEAE: Haemoglobin Decreased [1] | TEAE: Halitosis [1] | TEAE: Heart Rate Increased [1] | TEAE: Heart Rate and Pulse Investigations [1] | TEAE: Heat Exhaustion [1] | TEAE: Heat Injuries (Excl Thermal Burns) [1] | TEAE: Helicobacter Pylori Antibody Positive [1] | TEAE: Herpes Simplex Aggravated [1] | TEAE: Hyperreflexia [1] | TEAE: Hypoaesthesia [1] | TEAE: Infected Varicose Vein [1]
6 (2%) n (%): TEAE: Blood Triglycerides Increased [1] | TEAE: Blood Urine Present [1] | TEAE: Dyspepsia [1] | TEAE: Haemorrhoids and Gastrointestinal Varices (Excl Oesophageal) [1]
3 (1%) n (%): TEAE: Arthritis NOS [1] | TEAE: Back Injury NOS [1] | TEAE: Blood Pressure Increased [1] | TEAE: Bursal Disorders [1] | TEAE: Diarrhoea Aggravated [1] | TEAE: Disturbances in Consciousness NEC [1] | TEAE: Gastritis (Excl Infective) [1] | TEAE: Gastritis NOS [1] | TEAE: Headache NOS Aggravated [1] | TEAE: Herpes Viral Infections [1] | TEAE: Infections NEC [1]
12 (5%) n (%): TEAE: Back Pain [1]
